Results published in article PMC7179167 (Molecules, 2020).
In brackets after ≈: the same amount, converted by molar mass. Like-named read-outs stand apart in the source and are kept apart here.

Legend:
[1] = tested on: S. cerevisiae (ATCC 9080); experiment: Disk diffusion antimicrobial test, S. cerevisiae; assay type: cell-based; conditions: Saccharomyces cerevisiae, ATCC9080, yeast, 20 mg per disc (title), concentration 20 µg (footnote)
Method: (§1) The newly synthesized compounds were chosen to be evaluated in vitro towards a variety of pathogenic microorganisms; Gram-positive bacteria: S. aureus (ATCC 6538) and B. subtilis (ATCC 6633); Gram-negative bacteria: P. areuginosa (ATCC 27853) and E. coli (DSMZ 1058); yeast: C. albicans (ATCC 10231) and S. cerevisiae (ATCC 9080) and fungi: A. niger (NRRL A-326) using the disk diffusion method at a single dose of 20 µl. The results are shown in Table 1 as the growth inhibition zone (mm).
(§2) The antimicrobial activity of target compounds were evaluated to be in vitro against a variety of pathogenic microorganisms, namely Staphylococcus aureus (ATCC 6538), Bacillus subtilis (ATCC 6633) (Gram-positive bacteria), Pseudomonas areuginosa (ATCC 27853), Escherichia coli (DSMZ 1058) (Gram-negative bacteria), Candida albicans (ATCC 10231), Saccharomyces cerevisiae (ATCC 9080) (Yeast) and Aspergillus niger (NRRL A-326) (Fungi) using the disk diffusion method at a single dose of 20 µg. The microorganisms were served and obtained from the Microbial Biotechnology Department, National Research Center, Giza, Egypt. Amphotericin, amoxicillin and ciprofloxacin were used as reference drugs (Oxoid™ Disks). The tested compounds 11a–c, 12a–c, 13a–i, 14a–i and 15a,b were dissolved in dimethylsulphoxide (DMSO) at a concentration of 1 mg/mL. Aliquots of 20 μl were soaked on filter paper discs (6 mm) and dried at room temperature under sterilized conditions. The paper discs were placed on inoculated agar plats and then incubated for 24 h at 37 °C for bacterial strains and after 48–72 h incubation at 30 °C for fungi. Both bacterial and yeast strains were grown on nutrient agar medium (g/l): beef extract, 3; peptone, 10 and agar, 20 at pH of 7.2. The fungal strain was grown on Czapek-Dox medium (g/l): sucrose, 30; NaNO3, 3; MgSO4.7H2O, 0.5l; KCl, 0.5; FeSO4, 0.01; K2HPO4, 1 and agar, 20 at pH of 6.0.

A. niger (NRRL A-326) = experiment: Disk diffusion antimicrobial test, A. niger; assay type: cell-based; conditions: Aspergillus niger, fungi, 20 mg per disc (title), concentration 20 µg (footnote)
Method: as §1, §2

C. albicans (ATCC 10231) = experiment: Disk diffusion antimicrobial test, C. albicans; assay type: cell-based, Candida albicans; conditions: Candida albicans, ATCC10231, disk diffusion; yeast; 20 mg per disc (title), concentration 20 µg (footnote)
Method: as §1, §2

E. coli (DSMZ 1058) = experiment: Disk diffusion antimicrobial test, E. coli; assay type: cell-based; conditions: Escherichia coli, DSMZ1058, Gram-negative, 20 mg per disc (title), concentration 20 µg (footnote)
Method: as §1
The antimicrobial activity of target compounds were evaluated to be in vitro against a variety of pathogenic microorganisms, namely Staphylococcus aureus (ATCC 6538), Bacillus subtilis (ATCC 6633) (Gram-positive bacteria), Pseudomonas areuginosa (ATCC 27853), Escherichia coli (DSMZ 1058) (Gram-negative bacteria), Candida albicans (ATCC 10231), Saccharomyces cerevisiae (ATCC 9080) (Yeast) and Aspergillus niger (NRRL A-326) (Fungi) using the disk diffusion method at a single dose of 20 µg. The microorganisms were served and obtained from the Microbial Biotechnology Department, National Research Center, Giza, Egypt. Amphotericin, amoxicillin and ciprofloxacin were used as reference drugs (Oxoid™ Disks). The tested compounds 11a–c, 12a–c, 13a–i, 14a–i and 15a,b were dissolved in dimethylsulphoxide (DMSO) at a concentration of 1 mg/mL. […]

[2] = tested on: P. aeruginosa (ATCC 27853); experiment: Disk diffusion antimicrobial test, P. aeruginosa; assay type: cell-based, Pseudomonas areuginosa; conditions: Pseudomonas aeruginosa, ATCC27853, Gram-negative, 20 mg per disc (title), concentration 20 µg (footnote)
Method: as §1, §2

[3] = tested on: normal skin fibroblast cells (BJ-1); experiment: MTT cytotoxicity assay, normal skin fibroblast BJ-1; assay type: cell-based; conditions: Homo sapiens, 48 h, read-out: Growth Inhibition (%) BJ-1
Method: (§5) MCF-7 (human breast cancer), HCT-116 (human colon cancer) and HepG2 (human liver cancer) cell lines were obtained from Karolinska Institute, Stockholm, Sweden. All cells were maintained in RPMI 1640 medium. The media were supplemented with 10% heat-inactivated fetal bovine serum plus 1% antibiotic-antimycoticmixture (10,000 U/mL of potassium penicillin, 10,000 μg/mL of streptomycin sulfate, 25 μg/mL of amphotericin B and 1% of L glutamine (Biowest, USA)). BJ-1 of a human skin fibroblast derived from normal foreskin was obtained from ATCC® CRL-2522™ as a frozen ampoule with about 1 × 10^6 cells per 1 ml volume. BJ-1 was maintained in MEM with 2 mM of L-glutamine and Earle’s salts medium.
(§6) Cell viability was studied using the MTT 3-(4,5-dimethylthiazol-2-yl)-2,5-diphenyl-tetrazolium bromide (Bio Basic Canada Inc. Toronto, Canada) assay [33]. The steps were executed in a sterile laminar air flow cabinet biosafety class II level (Baker, SG403INT; Sanford, ME, USA). All incubations were carried out at 37 °C in a 5% CO2 incubator under a humidified atmosphere of 95% (Sheldon, TC2323; Cornelius, OR, USA). Cells were seeded into 96-well microtiter plastic plates at a concentration of (10^4 cells/well) and allowed to adhere for 24 h. The medium was aspirated and then added to the cells with the test compounds 11a–c, 12a–c, 13a–i, 14a–i and 15a,b at a single dose of 100 μg/mL in DMSO. After incubation of the medium for 48 h, 40 μL of MTT salt (2.5 μg/mL) was added to each well and then incubated for an additional 4 h. To stop the reaction and dissolve any formed formazan crystals, 200 μL of 10% sodium dodecyl sulfate (SDS) were added to each well and incubated overnight at 37 °C. The amount of formazan product was measured at 595 nm with a reference wavelength of 690 nm as a background using a microplate reader (Bio-Rad Laboratories, model 3350, California, USA). For the untreated cells (negative control), the medium was added instead of the tested compounds. […] Dimethylsulfoxide (DMSO) was the vehicle used for dissolution of the testing compound, and its final concentration on the cells was less than 0.2%. At the same dilution, the solvent concentration was the same for all drugs and between the control and drug treatments.

Bcl-2 [4] = experiment: Bcl-2 ELISA in HCT-116 cells; assay type: cell-based, human; conditions: HCT-116 cells treated at IC50 concentration; control 23.56 ± 3.56; mean ± SD
Source text: (§3) The promising antiproliferative results reported for compounds 11a, 11b, 12a, 12b and 13c against cell lines under study have prompted us to investigate the mechanism of cell death induced by these compounds. Apoptosis induction was examined in both MCF-7 and HCT-116 cancer cells by assaying the level of its key protein markers, namely: proapoptotic (p53, Bcl 2-associated X, Bax and caspases3) and antiapoptotic (B-cell lymphoma-2, Bcl-2). MCF-7 and HCT-116 cells undergoing apoptosis was detected by use of the ELISA technique. Protein marker levels were quantified according to Bradford assay.
(§4) Briefly, cells ([…] and HCT) were seeded at a concentration of 1.2–1.8 × 10^3 cells/well in 6-well plates. After 48-h treatment, the collected cells were lysed and centrifuged at 10,000 rpm for 20 min at 4 °C. The protein concentration was measured in the supernatant by Bradford protein assay. Volume containing […] of total protein was incubated with […] of caspase substrate in […] of the reaction buffer at 37 °C for 1 h in the dark. Caspase-3 activity was determined by a microplate reader at 405 nm using a caspase-3 colorimetric assay kit (Abcam) according to the manufacturer’s instructions. In vitro protein level quantitative measurement of apoptotic marker p53, Bcl-2-associated X (Bax) and antiapoptotic marker B-cell lymphoma-2 (Bcl-2) in cell lysate were assessed by Enzyme-Linked Immunosorbent Assay Simple Step ELISA® (ab199080, ab119506 and ab171571; Abcam) according to the manufacturer’s instructions.

Bax [5] = experiment: Bax ELISA in HCT-116 cells; assay type: cell-based, human; conditions: HCT-116 cells treated at IC50 concentration; control 118.54 ± 0.83; mean ± SD
Source text: as §3, §4

[6] = tested on: HCT-116 (human colon cancer); experiment: MTT cytotoxicity assay, HCT-116; assay type: cell-based; conditions: Homo sapiens
Method: as §5, §6

p53 [7] = experiment: p53 ELISA in HCT-116 cells; assay type: cell-based, human; conditions: HCT-116 cells treated at IC50 concentration; control 1.68 ± 0.06; mean ± SD
Source text: as §3, §4

[8] = tested on: MCF-7 (human breast cancer); experiment: MTT cytotoxicity assay, MCF-7; assay type: cell-based
[9] = tested on: HepG-2 (human liver cancer); experiment: MTT cytotoxicity assay, HepG-2; assay type: cell-based
Method: as §5, §6

caspase-3 [10] = experiment: Caspase-3 colorimetric assay in HCT-116 cells; assay type: cell-based, human; conditions: HCT-116 cells treated at IC50 concentration; control 13.60 ± 2.45; mean ± SD
Source text: as §3, §4

p53 [11] = experiment: p53 ELISA in MCF-7 cells; assay type: cell-based, human; conditions: MCF-7 cells treated at IC50 concentration; control 4.18 ± 0.58; mean ± SD
Source text: as §3, §4

Bax [12] = experiment: Bax ELISA in MCF-7 cells; assay type: cell-based, human; conditions: MCF-7 cells treated at IC50 concentration; control 39.56 ± 4.56; mean ± SD
Source text: as §3, §4

Bcl-2 [13] = experiment: Bcl-2 ELISA in MCF-7 cells; assay type: cell-based, human; conditions: MCF-7 cells treated at IC50 concentration; control 25.13 ± 3.45; mean ± SD
Source text: as §3, §4

caspase-3 [14] = experiment: Caspase-3 colorimetric assay in MCF-7 cells; assay type: cell-based, human
Source text: as §3, §4

[15] = DPPH free radical scavenging assay; assay type: biochemical; conditions: concentration of 20µg/l, mean ± SD of three experiments
Method: Antioxidant activity of the newly synthesized 13a–i, 14a–i, 11a–c and 12a–c were assessed in terms of hydrogen-donating or radical-scavenging ability via the stable free radical 1,1-diphenyl-2-picrylhydrazyl (DPPH) using ascorbic acid as a reference at a concentration of […].
The free radical scavenging activity (RSA) was assessed spectrophotometically at 517 nm via decoloration of the solution of the DPPH (1,1-diphenyl-2-picrylhydrazyl) radical according to Brand-Williams et al. 1995 [32]. DPPH solution was prepared by dissolving of 20 mg of DPPH in one liter of dimethylsulphoxide (DMSO). A freshly prepared DPPH solution was used for the assay. Each of the tested compounds 11a–c, 12a–c, 13a–i, 14a–i and 15a,b were dissolved in DMSO (1mg/mL). A volume of […] of a DMSO stock solution of the test compounds was added to 2 mL of freshly prepared DPPH in DMSO solution. The mixtures were shaken in a vortex (2500 rpm) for 1 min and then left to stand for 15, 30, 45 and 60 min in the dark room. The absorbance was measured at 517 nm against blank using UV visible spectrophotometer 2401 PC (Shimadzu, Kyoto, Japan). Lower absorbance of the reaction mixture indicated higher free radical scavenging activity was analyzed from the graph plots of the inhibition percentage against the compound concentration. The experiment was carried out in triplicate and averaged. The scavenging activity was calculated according to the following formula:Scavenging ability (%) = (A517 of control - A517of sample / A 517 of control) ×100(1)

B. subtilis (ATCC 6633) = experiment: Disk diffusion antimicrobial test, B. subtilis; assay type: cell-based, Bacillus subtilis; conditions: Bacillus subtilis, ATCC6633, Gram-positive, 20 mg per disc (title), concentration 20 µg (footnote)
Method: as §1, §2

S. aureus (ATCC 6538) = experiment: Disk diffusion antimicrobial test, S. aureus; assay type: cell-based, Staphylococcus aureus; conditions: Staphylococcus aureus, ATCC6538, Gram-positive, 20 mg per disc (title), concentration 20 µg (footnote)
Method: as §1, §2

[16] = 15 min, read-out: Scavenging Activity (%) on DPPH radicals at 15 min
[17] = 30 min, read-out: Scavenging Activity (%) on DPPH radicals at 30 min
[18] = 45 min, read-out: Scavenging Activity (%) on DPPH radicals at 45 min
[19] = 60 min, read-out: Scavenging Activity (%) on DPPH radicals at 60 min

## C[C@@H]1[C@H](O)[C@@H](C)/C=C/C=C/C=C/C=C/C=C/C=C/C=C/[C@H](O[C@@H]2O[C@H](C)[C@@H](O)[C@H](N)[C@@H]2O)C[C@@H]2O[C@](O)(C[C@@H](O)C[C@@H](O)[C@H](O)CC[C@@H](O)C[C@@H](O)CC(=O)O[C@H]1C)C[C@H](O)[C@H]2C(=O)O [Amphotericin B, amphotericin B, reference compound]
[1]
  zone of inhibition at 20 µg/disc: 23.5 mm
A. niger (NRRL A-326)
  zone of inhibition at 20 µg/disc: 26.7 mm
C. albicans (ATCC 10231)
  zone of inhibition at 20 µg/disc: 23.5 mm

## O=C(O)c1cn(C2CC2)c2cc(N3CCNCC3)c(F)cc2c1=O [Ciprofloxacin, ciprofloxacin, reference compound]
E. coli (DSMZ 1058)
  zone of inhibition at 20 µg/disc: 25.8 mm
[2]
  zone of inhibition at 20 µg/disc: 30.2 mm

## O=C1Nc2ccccc2C12CC(c1cn(Cc3ccccc3)c3ccccc13)=NN2 (centres unmarked) [Compound 13c, 5’-(N-Benzyl-1H-indol-3-yl)-2’,4’-dihydrospiro(indoline-3,3’-pyrazol)-2-one]
[3]
  inhibition at 100 µg/mL: 5.1%
Bcl-2 [4]
  Bcl-2 (ng/50 mg Protein): 57.45 ± 6.45 ng/50 mg Protein
Bax [5]
  Bax (pg/50 mg Protein): 123.45 ±7.45 pg/50 mg Protein
[6]; HCT-116, 100 µg/ml, 48 h, read-out: Growth Inhibition (%) HCT-116
  inhibition at 100 µg/mL: 97.9%
[6]; HCT-116, 48 h, 48 h post-treatment
  IC50: 14.7 µg/mL (≈ 37.5 µM)
p53 [7]
  p53 (pg/50 mg Protein): 2.34 ± 0.95 pg/50 mg Protein
[8]; MCF7, 100 µg/ml, 48 h, read-out: Growth Inhibition (%) MCF-7
  inhibition at 100 µg/mL: 97.8%
[8]; MCF7, 48 h post-treatment
  IC50: 24.1 µg/mL (≈ 61.4 µM)
[9]; HepG2, 100 µg/ml, 48 h, read-out: Growth Inhibition (%) HepG-2
  inhibition at 100 µg/mL: 90.9%
[9]; HepG2, 48 h post-treatment
  IC50: 27 µg/mL (≈ 68.8 µM)
caspase-3 [10]
  Caspase-3 Activity %: 47.32 ± 6.32%
p53 [11]
  p53 (Pg/50 mg Protein): 7.34 ± 1.5 Pg/50 mg Protein
Bax [12]
  Bax (pg/50 mg Protein): 88.34 ± 3.79 pg/50 mg Protein
Bcl-2 [13]
  Bcl-2 (ng/50 mg Protein): 44.5 ± 4.56 ng/50 mg Protein
caspase-3 [14]; MCF-7 cells treated at IC50 concentration, control 10.2 ± 2.84, mean ± SD
  Caspase-3 Activity %: 39.07 ± 4.97%
caspase-3 [14]; MCF-7 cells, IC50 concentration
  Elevation of active caspase-3 protein levels compared to the control: ~3.8 folds
[15]; [16]
  inhibition: 14 ± 1.36%
[15]; [17]
  inhibition: 21 ± 1.26%
[15]; [18]
  inhibition: 24 ± 1.51%
[15]; [19]
  inhibition: 35.1 ± 1.61%

## COc1c(-c2cnc3ccccc3c2C(=O)O)c(O)cc2occc12 [Compound 15a, 3-(6-Hydroxy-4-methoxybenzofuran-5-yl)quinoline-4-carboxylic acid]
other
  melting point: 217 to 219 °C
A. niger (NRRL A-326)
  zone of inhibition at 20 µg/disc: 10 mm
[15]; [16]
  inhibition: 9.36 ± 1.25%
[15]; [17]
  inhibition: 14.2 ± 1.61%
[15]; [18]
  inhibition: 20.4 ± 1.92%
[15]; [19]
  inhibition: 24.8 ± 2.05%
B. subtilis (ATCC 6633)
  zone of inhibition at 20 µg/disc: 16 mm
C. albicans (ATCC 10231)
  zone of inhibition at 20 µg/disc: 12 mm
[2]
  zone of inhibition at 20 µg/disc: 24 mm
S. aureus (ATCC 6538)
  zone of inhibition at 20 µg/disc: 8 mm
